Measurements taken from US20230414607A1, “METHODS OF TREATMENT” (BOW RIVER LLC, priority 2017, published 2023).
Read-outs that look alike come from different tables or passages of the source. Marks after values point to notes of the source that are not given here.

Key:
[1] = Plasma ranolazine pharmacokinetics before, during and after posaconazole in normal-weight and obese subjects; type: in vivo; conditions: human, oral, 500 mg, Day 1, obese subjects, ranolazine 500 mg ER
[2] = as above; type: in vivo, human; conditions: for Time the interaction persisted above an AUC GMR of 1.5: after cessation of posaconazole administration; for Time the interaction persisted above a Cmax GMR of 1.5: after cessation of posaconazole
Description: Procedures. […] On study day 2, subjects received posaconazole (300 mg delayed-release tablet twice a day), and on the mornings of days 3-15, subjects received posaconazole (300 mg delayed-release tablet daily). Because posaconazole is to be taken with food,^6 subjects were fed a continental breakfast in the clinical research unit after receiving posaconazole and before discharge from the unit. […] Samples were centrifuged, and the plasma was separated and frozen at −70° C. until the time of assay of plasma posaconazole concentrations. […] Plasma samples were extracted by methyl tertiary butyl ether, centrifuged, and the upper layer was transferred to plastic injection vials with MeOH/water (50:50). An aliquot of the sample was then injected onto a high-pressure liquid chromatography with tandem mass spectrometry triple quadrupole mass spectrometer (Sciex API-5500). The analytical column was a Unison CK-218, 3 μm particle size HPLC column (50×2 mm) from Imtakt USA (Portland, OR). […] Pharmacokinetic and Statistical Methods. […] This was used to calculate the half-life (t1/2). The area under the plasma concentration curve from time 0 until the last nonzero point was determined by the linear trapezoidal method. To this was added the residual area, calculated as the final nonzero concentration divided by β, yielding the total area under the plasma concentration curve extrapolated to infinity (AUC). Also tabulated was the observed maximum plasma concentration (Cmax). Variables were aggregated as arithmetic mean and SD.

[3] = human, plasma, oral, 500 mg, Day 1 (before posaconazole), normal-weight subjects, ranolazine 500 mg ER, mean ± SD
[4] = human, plasma, oral, 500 mg, Day 1 (before posaconazole), obese subjects, ranolazine 500 mg ER, mean ± SD
[5] = human, plasma, oral, 500 mg, Day 18 (3 days after last posaconazole dose), normal-weight subjects, ranolazine 500 mg ER, mean ± SD
[6] = human, plasma, oral, 500 mg, Day 18 (3 days after last posaconazole dose), obese subjects, ranolazine 500 mg ER, mean ± SD
[7] = human, plasma, oral, 500 mg, Day 22 (7 days after last posaconazole dose), normal-weight subjects, ranolazine 500 mg ER, mean ± SD
[8] = human, plasma, oral, 500 mg, Day 22 (7 days after last posaconazole dose), obese subjects, ranolazine 500 mg ER, mean ± SD
[9] = human, plasma, oral, 500 mg, Day 25 (10 days after last posaconazole dose), normal-weight subjects, ranolazine 500 mg ER, mean ± SD
[10] = human, plasma, oral, 500 mg, Day 25 (10 days after last posaconazole dose), obese subjects, ranolazine 500 mg ER, mean ± SD
[11] = human, plasma, oral, 500 mg, Day 29 (14 days after last posaconazole dose), normal-weight subjects, ranolazine 500 mg ER, mean ± SD
[12] = human, plasma, oral, 500 mg, Day 29 (14 days after last posaconazole dose), obese subjects, ranolazine 500 mg ER, mean ± SD
[13] = human, plasma, oral, Day 15 (last day of posaconazole 300 mg daily), normal-weight subjects, ranolazine 500 mg ER, mean ± SD
[14] = human, plasma, oral, Day 15 (last day of posaconazole 300 mg daily), obese subjects, ranolazine 500 mg ER, mean ± SD

- Cmax ([1]; read-out: Geometric mean Cmax): 559 ± 271 ng/mL
- AUC ([1]; Geometric mean AUC for ranolazine): 6960 ng·h/mL
- T1/2 ([2]; Day 1 (before posaconazole), normal-weight subjects, ranolazine 500 mg ER, mean ± SD): 4.98 ± 1.50^a h
- Time the interaction persisted above an AUC GMR of 1.5 ([2]; normal-weight subjects): at least 7 days
- Time the interaction persisted above an AUC GMR of 1.5 ([2]; obese subjects): ≥ 10 days
- Time the interaction persisted above a Cmax GMR of 1.5 ([2]; normal-weight subjects): 7 days
- Time the interaction persisted above a Cmax GMR of 1.5 ([2]; obese subjects): 10 days
- Time the lower bound of the AUC GMR 90% CI remained above 1.0 ([2]; both normal-weight and obese subjects): 7 days
- AUC(0-inf) [2, 3]: 7080 ± 3600 ng·h/mL
- half-life [2, 3]: 4.99 ± 1.5 h
- Cmax ([2]; human, plasma, oral, 500 mg, Day 1 (before posaconazole), normal-weight subjects, ranolazine 500 mg extended-release tablet, mean ± SD, read-out: Cmax): 665 ± 318 ng/mL
- AUC(0-inf) [2, 4]: 8130 ± 4840 ng·h/mL
- half-life [2, 4]: 6.02 ± 1.75 h
- Cmax ([2]; human, plasma, oral, 500 mg, Day 1 (before posaconazole), obese subjects, ranolazine 500 mg extended-release tablet, mean ± SD, read-out: Cmax): 559 ± 271 ng/mL
- Cmax ([2]; human, plasma, oral, 500 mg, Day 1, normal-weight subjects, ranolazine 500 mg ER, read-out: Geometric mean Cmax): 665 ± 318 ng/mL
- AUC(0-inf) [2, 5]: 17300 ± 10300 ng·h/mL
- half-life [2, 5]: 5.73 ± 1.53 h
- Cmax ([2]; human, plasma, oral, 500 mg, Day 18 (3 days after last posaconazole dose), normal-weight subjects, ranolazine 500 mg ER, mean ± SD, read-out: Cmax): 1190 ± 469 ng/mL
- AUC(0-inf) [2, 6]: 19300 ± 14200 ng·h/mL
- half-life [2, 6]: 7.93 ± 2.98 h
- Cmax ([2]; human, plasma, oral, 500 mg, Day 18 (3 days after last posaconazole dose), obese subjects, ranolazine 500 mg ER, mean ± SD, read-out: Cmax): 1100 ± 502 ng/mL
- AUC(0-inf) [2, 7]: 13400 ± 6250 ng·h/mL
- half-life [2, 7]: 6.47 ± 3.14 h
- Cmax ([2]; human, plasma, oral, 500 mg, Day 22 (7 days after last posaconazole dose), normal-weight subjects, ranolazine 500 mg ER, mean ± SD, read-out: Cmax): 974 ± 400 ng/mL
- AUC(0-inf) [2, 8]: 15900 ± 11800 ng·h/mL
- half-life [2, 8]: 6.09 ± 2.1 h
- Cmax ([2]; human, plasma, oral, 500 mg, Day 22 (7 days after last posaconazole dose), obese subjects, ranolazine 500 mg ER, mean ± SD, read-out: Cmax): 1060 ± 508 ng/mL
- AUC(0-inf) [2, 9]: 9380 ± 4590 ng·h/mL
- half-life [2, 9]: 5.05 ± 1.82 h
- Cmax ([2]; human, plasma, oral, 500 mg, Day 25 (10 days after last posaconazole dose), normal-weight subjects, ranolazine 500 mg ER, mean ± SD, read-out: Cmax): 928 ± 482 ng/mL
- AUC(0-inf) [2, 10]: 13800 ± 10600 ng·h/mL
- half-life [2, 10]: 6.07 ± 2.1 h
- Cmax ([2]; human, plasma, oral, 500 mg, Day 25 (10 days after last posaconazole dose), obese subjects, ranolazine 500 mg ER, mean ± SD, read-out: Cmax): 976 ± 487 ng/mL
- AUC(0-inf) [2, 11]: 8570 ± 3800 ng·h/mL
- half-life [2, 11]: 4.45 ± 1.38 h
- Cmax ([2]; human, plasma, oral, 500 mg, Day 29 (14 days after last posaconazole dose), normal-weight subjects, ranolazine 500 mg ER, mean ± SD, read-out: Cmax): 751 ± 276 ng/mL
- AUC(0-inf) [2, 12]: 10200 ± 7940 ng·h/mL
- half-life [2, 12]: 6.38 ± 3.05 h
- Cmax ([2]; human, plasma, oral, 500 mg, Day 29 (14 days after last posaconazole dose), obese subjects, ranolazine 500 mg ER, mean ± SD, read-out: Cmax): 719 ± 333 ng/mL
- AUC ([2]; human, plasma, oral, 500 mg, Geometric mean AUC for ranolazine, Day 1, normal-weight subjects, ranolazine 500 mg ER): 6450 ng·h/mL
- AUC(0-inf) [2, 13]: 27500 ± 14900 ng·h/mL
- half-life [2, 13]: 9.54 ± 4.3 h
- Cmax ([2]; human, plasma, oral, Day 15 (last day of posaconazole 300 mg daily), normal-weight subjects, ranolazine 500 mg ER, mean ± SD, read-out: Cmax): 1430 ± 666 ng/mL
- AUC(0-inf) [2, 14]: 25800 ± 21600 ng·h/mL
- half-life [2, 14]: 8.78 ± 5.58 h
- Cmax ([2]; human, plasma, oral, Day 15 (last day of posaconazole 300 mg daily), obese subjects, ranolazine 500 mg ER, mean ± SD, read-out: Cmax): 1180 ± 512 ng/mL
Structure (SMILES): COc1ccccc1OCC(O)CN1CCN(CC(=O)Nc2c(C)cccc2C)CC1 (stereo not shown) [ranolazine]
